Columns and labels:
[1] = tested on: 12 base DNA or RNA primers hybridized to a DNA template; assay: DNA- and RNA-primed synthesis of DNA and RNA; format: biochemical
Description: DNA- and RNA-primed synthesis of DNA and RNA: In the assays described so far de novo initiated synthesis has been examined. T7 RNAP can also extend RNA primers. Therefore, the abilities of both polymerase to carry out DNA or RNA primed synthesis of DNA and RNA (FIG. 5) were examined.
Transcription reactions contained end-labeled 12 base DNA or RNA primers of identical sequence (GGACACGGCGAA, SEQ ID NO: 4) hybridized to a DNA template ([…] TAAGTATCC, SEQ ID NO: 5). Primer-template concentration was 10^-5 M. Reactions contained the indicated polymerases (10^-7 M) and NTPs. NTP concentrations and electrophoresis as in FIG. 1.

pT75 = assay: Activity with NTPs containing different 2′-substituents; format: biochemical; set-up: unit not given here
Protocol: Activity was determined with pT75 as template but with one of the rNTPs replaced with a dNTP or a 2′-modified NTP. The labeling NTP was UTP (in reactions with 2′-modified CTPs or ATPs) or CTP (in reactions with 2′-modified UTPs). Y639F and Y639M represent enzymes with substitutions of the wild-type (W.T.) tyrosine at position 639 by phenyalanine (F) or methionine (M), respectively.

Bgl II-cut pPK5 = assay: Run-off transcription with 2′-OMe- or 2′-azido-NTPs on Bgl II-cut pPK5; format: biochemical
Protocol: RNAPs were prepared as described (Brieba, L G, and Sousa, R. Biochemistry, 39: 919-923, 2000). Transcription reactions were carried out for 30 min. at room temperature in 40 mM Tris-Cl, pH 8.0, 6 mM MgCl2, 10 mM NaCl, 2 mM spermidine, with templates at 10^−7 M and RNAPs at 2×10^−7 M. All NTPs were used at 0.5 mM, and transcripts were labeled by inclusion of 1% v/v 800 Ci/mM […] in the reaction. Modified NTPs were from Trilink Biotechnologies. Reactions were stopped by addition of an equal volume of 90% formamide, 50 mM EDTA, 0.01% xylene cyanol, resolved by electrophoresis in 20% acrylamide, 1% bis-acrylamide, 1×TBE gels, and visualized on a Molecular Dynamics Phosphorimager.
The ability of the wild-type, Y639F and Y639F/H784A mutants to utilize 2′-OMe-UTP and 2′-OMe-CTP, and 2′-azido-UTP and 2′-azido-CTP in RNA synthesis was tested. On a Bgl II-cut pPK5 (Mentesanas, P. E., et al., “Characterization of Bacteriophage T7 RNA Polymerase Elongation Complexes,” J. Mol. Biol. 302:1049-1062, 2000) template in which CTP and UTP are first incorporated at +14 and +15, respectively, the wild-type enzyme can synthesize 34 nucleotide (nt) run-off transcripts in reactions in which UTP is replaced with 2′-OMe-UTP (FIG. 2a, lane 2) or in reactions in which CTP is replaced with 2′-OMe-CTP (FIG. 2a, lane 3). Relative to the reaction with 4 NTPs (FIG. 2a, lane 1), yields of run-off transcripts are reduced 6-fold and 21-fold in the 2′-OMe-UTP and 2′-OMe-CTP reactions, respectively. When both UTP and CTP are replaced with the corresponding 2′-OMe-NTPs, run-off transcription with the wild-type enzyme is undetectable (FIG. 2a, lane 4). Terminated transcripts are seen in these reactions at positions where 2′-OMe-UMP or 2′-OMe-CMP are incorporated (FIG. 2a, lanes 2-4). The Y639F mutation enhances utilization of the 2′-OMe-NTPs: relative to reactions with 4 NTPs (FIG. 2a, lane 5) runoff transcription with Y639F is reduced, respectively: 2-fold, 8-fold, and 55-fold in reactions with 2′-OMe-UTP, 2′-OMe-CTP, or both (FIG. 2a, lanes 6-8). With the Y639F/H784A double mutant the reduction in run-off transcript synthesis is <15% in reactions with 2′-OMe-UTP (FIG. 2a, lane 10), and only 3-fold and 6-fold in reactions with, respectively, 2′-OMe-CTP or both 2′-OMe-UTP and 2′-OMe-CTP (FIG. 2a, lanes 11, 12).
Identical experiments were carried out with 2′-azido-UTP or 2′-azido-CTP replacing UTP or CTP, respectively (FIG. 2b). With the wild-type enzyme, run-off transcription was reduced 15- and 50-fold in reactions with 2′-azido-UTP or 2′-azido-CTP, respectively (FIG. 2b; lanes 2, 3), and was undetectable in reactions with both 2′-azido-UTP and 2′-azido-CTP (FIG. 2b; lane 4). With Y639F, use of 2′-azido-UTP or 2′-azido-CTP reduced run-off transcription by 70% (FIG. 2b; lanes 6, 7) compared to reactions with 4 NTPs (FIG. 2b; lane 5), while use of both 2′-azido-UTP and 2′-azido-CTP reduced runoff transcription by 11-fold (FIG. 2b, lane 8). With Y639F/H784A use of a single azido-modified NTP reduced run-off transcription by only 40% (FIG. 2b; lanes 10, 11), while use of two 2′-azido-NTPs reduced it by 3-fold (FIG. 2b; lane 12).

[2] = transcripts synthesized in vivo; cited from earlier work
[3] = 2′,3′-dideoxy NTP preference (relative specificity kcat/Km NTP vs ddNTP); format: biochemical
Description: Numbers reflect the relative specificity (kcat/Km) for an NTP vs. the corresponding ddNTP. Relative specificities could not be evaluated for the wild-type T7 RNAP because the ddNTPs are such poor substrates, but these relative specificities appear to be at least 150-fold.

[4] = both 2′-azido-UTP and 2′-azido-CTP

For “Y639F: T7 RNAP with wild-type tyrosine at position 639 substituted by phenylalanine”, the “Extension of DNA and RNA primers with dNTPs less efficient than with rNTPs” value [1] was ~4 fold, the Activity (pT75; 2′-F-ATP replacing ATP) was 50 ± 1.4 and the Activity (pT75; 2′-F-CTP replacing CTP) was 63 ± 3.1. For the same substance, the Activity (pT75; 2′-F-UTP replacing UTP) was 73 ± 2.6, the Activity (pT75; 2′-NH2-ATP replacing ATP) was 21 ± .75 and the Activity (pT75; 2′-NH2-CTP replacing CTP) was 60 ± 2.5. The Activity (pT75; 2′-NH2-UTP replacing UTP) was 12 ± .41, the Activity (pT75; 2′-dATP replacing ATP) was 40 ± 1.3 and the Activity (pT75; 2′-dCTP replacing CTP) was 57 ± 1.7. It also gave an Activity (pT75; 2′-dUTP replacing UTP) of 46 ± 2.4, an Activity (pT75; ATP) of 96 ± 3.0 and an Activity (pT75; CTP) of 103 ± 2.3. The Activity (pT75; UTP) was 95 ± 6.7, the “Reduction of run-off transcript yield relative to 4 NTPs” value (Bgl II-cut pPK5; 2′-OMe-CTP replacing CTP) was 8 fold and the “Reduction of run-off transcript yield relative to 4 NTPs” value (Bgl II-cut pPK5; 2′-OMe-UTP replacing UTP) was 2 fold. For the same substance, the “Reduction of run-off transcript yield relative to 4 NTPs” value (Bgl II-cut pPK5; both 2′-OMe-UTP and 2′-OMe-CTP) was 55 fold, the “Reduction of run-off transcription” value (Bgl II-cut pPK5; [4]) was 11 fold and the “Reduction of run-off transcription” value (Bgl II-cut pPK5; single azido-modified NTP (2′-azido-UTP or 2′-azido-CTP)) was 70%. The “Protein per transcript compared to transcripts synthesized by wild-type enzyme” value [2] was “½-⅓”.

With “W.T.: wild-type T7 RNA polymerase [reference compound]” the “Relative specificity NTP vs. corresponding ddNTP” value [3] was “at least 150 fold”, the Activity (pT75; 2′-F-ATP replacing ATP) was 6.6 ± .12 and the Activity (pT75; 2′-F-CTP replacing CTP) was 3.4 ± .22. The Activity (pT75; 2′-F-UTP replacing UTP) was 3.1 ± .14, the Activity (pT75; 2′-NH2-ATP replacing ATP) was 18 ± .39 and the Activity (pT75; 2′-NH2-CTP replacing CTP) was 34 ± .86. For the same substance, the Activity (pT75; 2′-NH2-UTP replacing UTP) was 5.9 ± .27, the Activity (pT75; 2′-dATP replacing ATP) was 2.7 ± .28 and the Activity (pT75; 2′-dCTP replacing CTP) was 1.6 ± .16. For the same substance, the Activity (pT75; 2′-dUTP replacing UTP) was 2.4 ± .11, the Activity (pT75; ATP) was 100 and the Activity (pT75; CTP) was 100. The Activity (pT75; UTP) was 100, the “Reduction of run-off transcript yield relative to 4 NTPs” value (Bgl II-cut pPK5; 2′-OMe-CTP replacing CTP) was 21 fold and the “Reduction of run-off transcript yield relative to 4 NTPs” value (Bgl II-cut pPK5; 2′-OMe-UTP replacing UTP) was 6 fold. The “Reduction of run-off transcription” value (Bgl II-cut pPK5; 2′-azido-CTP replacing CTP) was 50 fold, the “Reduction of run-off transcription” value (Bgl II-cut pPK5; 2′-azido-UTP replacing UTP) was 15 fold and the “Reduction of run-off transcript yield relative to 4 NTPs” value (Bgl II-cut pPK5; both 2′-OMe-UTP and 2′-OMe-CTP) was “undetectable”. For the same substance, the “Reduction of run-off transcription” value (Bgl II-cut pPK5; [4]) was “undetectable”.

Source: patent US20050069907A1, “Methods for using double-mutant RNA polymerases with reduced discrimination between non-canonical and canonical nucleoside triphosphates” (priority 2002, published 2005)
